Test results reported in patent publication US6362134B1, “Herbicidal 1,2,4,6-thiatriazines” (Syngenta Investment Corporation, priority 1996, dated 2002).

Columns and labels:
Avena = test: Herbicidal action before emergence of the plants (pre-emergent action); format: in vivo; conditions: 2000 g of active substance/ha, sprayed immediately after sowing, evaluated after 3 weeks, ratings scale of nine levels (1=complete damage, 9=no action)
Protocol: (§1) Monocotyledon and dicotyledon test plants are sown in standard soil in plastic pots. Immediately after sowing, the test substances are sprayed on (500 l of water/ha) in an aqueous suspension prepared from a 25% wettable powder (Example F3, b)), corresponding to a dosage of 2000 g of active substance/ha. The test plants are then grown under optimum conditions in a greenhouse. After a test period of 3 weeks, the test is evaluated with a ratings scale of nine levels (1=complete damage, 9=no action). Ratings of 1 to 4 (in particular 1 to 3) mean a good to very good herbicidal action.
(§2) Test plants: Avena, Setaria, Sinapis, Stellaria

Sinapis [1] = test: as above; format: in vivo; set-up: key: 1=complete damage; 9=no action; Ratings of 1 to 4 (in particular 1 to 3) mean a good to very good herbicidal action; conditions: 2000 g of active substance/ha, sprayed immediately after sowing, evaluated after 3 weeks, ratings scale of nine levels
Protocol: as §1, §2

Setaria = test: as above; format: in vivo; set-up: key: 1=complete damage; 9=no action; Ratings of 1 to 4 (in particular 1 to 3) mean a good to very good herbicidal action; conditions: 2000 g of active substance/ha, sprayed immediately after sowing, evaluated after 3 weeks, ratings scale of nine levels
Protocol: as §1, §2

Stellaria [2] = test: as above; format: in vivo; set-up: key: 1=complete damage; 9=no action; Ratings of 1 to 4 (in particular 1 to 3) mean a good to very good herbicidal action; conditions: 2000 g of active substance/ha, sprayed immediately after sowing, evaluated after 3 weeks, ratings scale of nine levels
Protocol: as §1, §2

Sinapis [3] = test: Post-emergent herbicidal action (contact herbicide); format: in vivo; set-up: key: 1=complete damage; 9=no action; Ratings of 1 to 4 (in particular 1 to 3) mean a good to very good herbicidal action; conditions: 2000 g of active substance/ha, sprayed in the 4- to 6-leaf stage, evaluated after about 18 days, ratings scale 1-9
Protocol: (§3) Monocotyledon and dicotyledon test plants are grown in plastic pots with standard soil in a greenhouse and, in the 4- to 6-leaf stage, are sprayed with an aqueous suspension of the test substances of the formula 1, prepared from a 25% wettable power (Example F3, b)), corresponding to a dosage of 2000 g of active substance/ha (500 l of water/ha). The test plants are then grown further in the greenhouse under optimum conditions. After a test period of about 18 days, the test is evaluated with a ratings scale of 9 levels (1=complete damage, 9=no action). Ratings of 1 to 4 (in particular 1 to 3) mean a good to very good herbicidal action.
(§4) Test plants: Sinapis, Stellaria

Stellaria [4] = test: as above; format: in vivo; set-up: key: 1=complete damage; 9=no action; Ratings of 1 to 4 (in particular 1 to 3) mean a good to very good herbicidal action; conditions: 2000 g of active substance/ha, sprayed in the 4- to 6-leaf stage, evaluated after about 18 days, ratings scale 1-9
Protocol: as §3, §4

[5] = Stability of the isolated compound when left to stand; format: physicochemical; conditions: isolated product
Protocol: 4.09 g (0.02 mol) of 1,3,5-trichlorothiatriazine are stirred as a suspension in 50 ml of carbon tetrachloride at −25° C., and a solution of 0.70 g (0.022 mol) of methanol in a little carbon tetrachloride is added dropwise. During this operation, the trichlorothiatriazine dissolves apart from a little insoluble product. The mixture is then warmed to 0° C. and filtered and the filtrate is concentrated on a rotary evaporator at a maximum of 50° C. 3.25 g of the desired product, which, according to the ^13C-NMR spectrum and thin layer chromatogram (silica gel; eluting agent ethyl acetate/hexane 1/3), contains practically no further impurities, are obtained as the residue.

SMILES | melting point | Pre-emergent action, rating, Avena (Avena) | Pre-emergent action, rating, Sinapis (Sinapis [1]) | Pre-emergent action, rating, Setaria (Setaria) | Pre-emergent action, rating, Stellaria (Stellaria [2]) | Post-emergent action, rating, Sinapis (Sinapis [3]) | Post-emergent action, rating, Stellaria (Stellaria [4]) | stability when left to stand [5]
CCCN(CCC)S1=NC(N)=NC(Oc2cc(F)ccc2F)=N1 (stereo not shown) [Example H17, 3-amino-1-dipropylamino-5-(2′,5′-difluorophenoxy)thiatriazine] | 184 to 185 °C | – | – | – | – | – | – | –
CC(C)OS1=NC(N)=NC(Oc2cc(F)ccc2F)=N1 (stereo not shown) [Example H14, 3-amino-1-isopropoxy-5-(2′,5′-difluorophenoxy)thiatriazine] | 163 to 164 °C | – | – | – | – | – | – | –
CC1CC(C)CC(OS2=NC(N)=NC(Oc3c(F)c(F)c(F)c(F)c3F)=N2)C1 (stereo not shown) [5.120] | – | 4 | 1 | 2 | 1 | 2 | 3 | –
COC1=NS(OC)=NC(Oc2cc(F)ccc2F)=N1 (stereo not shown) [Example H10, 1,3-dimethoxy-5-(2′,5′-di-fluorophenoxy)thiatriazine] | 75 to 76 °C | – | – | – | – | – | – | –
CC1CN(S2=NC(N)=NC(Oc3c(F)c(F)c(F)c(F)c3F)=N2)C2CCCCC12 (stereo not shown) [6.295] | – | 3 | 1 | 1 | 1 | 1 | 3 | –
COS1=NC(Cl)=NC(Cl)=N1 (stereo not shown) [Example H3, 1-methoxy-3,5-dichlorothiatriazine] | – | – | – | – | – | – | – | unstable and decomposes within a few hours when left to stand
NC1=NS(N2CCCCCCCC2)=NC(Oc2c(F)c(F)cc(F)c2F)=N1 (stereo not shown) [6.302] | – | 3 | 1 | 2 | 1 | 2 | 3 | –
CC1(C)CC2CC(C)(CN2S2=NC(N)=NC(Oc3c(F)c(F)c(F)c(F)c3F)=N2)C1 (single isomer, unassigned) [6.154] | – | 4 | 1 | 1 | 1 | 1 | 1 | –
CCC1CCCCN1S1=NC(N)=NC(Oc2c(F)c(F)c(F)c(F)c2F)=N1 (stereo not shown) [6.30] | – | 3 | 1 | 2 | 1 | 2 | 3 | –
CC1CC2CCCCC2N(S2=NC(N)=NC(Oc3c(F)c(F)c(F)c(F)c3F)=N2)C1 (stereo not shown) [6.292] | – | 5 | 1 | 1 | 1 | 2 | 3 | –
NC1=NS(N2CCc3ccccc3C2)=NC(Oc2c(F)c(F)c(F)c(F)c2F)=N1 (stereo not shown) [6.145] | – | 4 | 1 | 2 | 1 | 3 | 3 | –
CC1(C)CCCN(S2=NC(N)=NC(Oc3cc(F)ccc3F)=N2)C1 (stereo not shown) [6.129] | – | 4 | 1 | 4 | 1 | 2 | 3 | –
CC1CC2CCCCC2N1S1=NC(N)=NC(Oc2c(F)c(F)c(F)c(F)c2F)=N1 (stereo not shown) [6.282] | – | 4 | 1 | 2 | 1 | 1 | 5 | –
CC1CC(OS2=NC(N)=NC(Oc3c(F)c(F)c(F)c(F)c3F)=N2)CC(C)(C)C1 (stereo not shown) [5.78] | – | 3 | 2 | 2 | 1 | 2 | 3 | –
NC1=NS(N2CC3CCCC2CC3)=NC(Oc2c(F)c(F)c(F)c(F)c2F)=N1 (stereo not shown) [6.185] | – | 4 | 1 | 4 | 1 | 1 | 1 | –
NC1=NC(Oc2cc(F)ccc2F)=NS(N2CCCC3CCCCC32)=N1 (stereo not shown) [6.135] | – | 3 | 1 | 3 | 1 | 3 | 3 | –
CC1(C)CC2CC(C)(CN2S2=NC(N)=NC(Oc3c(F)c(F)c(F)c(F)c3F)=N2)C1 (single isomer, unassigned) [6.153] | – | 4 | 1 | 3 | 1 | 1 | 2 | –
C[Si](C)(C)COS1=NC(N)=NC(Oc2c(F)c(F)c(F)c(F)c2F)=N1 (stereo not shown) [5.321] | – | 3 | 1 | 1 | 1 | 2 | 2 | –
CN(Cc1ccc(Cl)nc1)S1=NC(N)=NC(Oc2c(F)c(F)c(F)c(F)c2F)=N1 (stereo not shown) [6.170] | – | 3 | 4 | 4 | 1 | 2 | 3 | –
CN(Cc1ccccc1)S1=NC(N)=NC(Oc2c(F)c(F)c(F)c(F)c2F)=N1 (stereo not shown) [6.192] | – | 2 | 1 | 1 | 1 | 2 | 4 | –
CC(C)(C)C1CCC(OS2=NC(N)=NC(Oc3c(F)c(F)c(F)c(F)c3F)=N2)CC1 (stereo not shown) [5.127] | – | 4 | 1 | 2 | 1 | 2 | 3 | –
